Test results taken from patent US20030149075A1, “Zoniporide mesylate pharmaceutical compositions and processes for improving solubility of zoniporide” (Pfizer Inc., priority 2002, published 2003).
Counter-ions that a name gives are not always drawn.

How the values were obtained:
[1] = Aqueous solubility of Zoniporide / Zoniporide mesylate, including pH adjustment with acids; assay type: physicochemical
Text: The most commercially feasible and the most pharmaceutically acceptable means, in this particular instance, for increasing solubility of Zoniporide was via pH adjustment.
Further additions of methanesulfonic acid further improved solubility with decreasing pH.
The phrase “increase (or increasing) the solubility” means increasing the solubility of Zoniporide or Zoniporide mesylate to a value greater than the solubility of Zoniporide mesylate in water (i.e. greater than about 18 mgA/mL).
(§1) The use of methanesulfonic acid to lower the pH of pharmaceutical formulations is non-traditional in the pharmaceutical field. […] Typically, the pH of pharmaceutical intravenous formulations is not lower than about pH of 3, because of injection-site toleration problems that are inherent in low pH formulations. […] Reducing the pH below about 2, however, can further increase the concentration of Zoniporide, but may cause injection site toleration issues.

[2] = Injection-site toleration of low-pH Zoniporide formulations; assay type: in vivo; settings: formulations adjusted with methanesulfonic acid to as low as about pH 2
Text: as §1

Row | solubility of Zoniporide mesylate in water ([1]; in water, mgA/mL = mg/mL of active compound Zoniporide) | change in solubility on pH adjustment with methanesulfonic acid ([1]; addition of methanesulfonic acid, further additions further improved solubility with decreasing pH) | change in solubility on pH adjustment with typical pH adjusters ([1]; hydrochloric acid, sulfuric acid, phosphoric acid, aqueous solution, pH range acceptable for infusion) | Compound | injection-site toleration [2]
1 | about 18 mgA/mL | – | – | N=C(N)NC(=O)c1cnn(-c2cccc3ncccc23)c1C1CC1 [Zoniporide mesylate] | –
2 | – | increase in solubility | no significant increase in solubility | N=C(N)NC(=O)c1cnn(-c2cccc3ncccc23)c1C1CC1 [Zoniporide, N-(5-cyclopropyl-1-quinolin-5-yl-1H-pyrazole-4-carbonyl)-guanidine] | without the expected injection-site toleration issues
